Assay results as given in patent US20140358094A1, “COMPOSITION, THE NANO-EMULSION AND TRANSDERMAL PATCH, METHODS OF PREPARATION AND USE THEREOF FOR TREATING TRAUMATIC INJURIES” (Nano and Advanced Materials Institute Limited, priority 2013, published 2014).

Assay: In vitro skin diffusion study, vertical Franz diffusion cell, HPLC-ESI-MS of markers
Assay type: in vitro ADME, pig
Conditions: 24 hours; for elevation of diffusion properties, transdermal patch relative to herbal paste control, receiving medium: FIG. 4A, markers diffused in the receiving medium; for elevation of diffusion properties, transdermal patch relative to herbal paste control, pig skin: FIG. 4B, markers remained in the pig skin; for percentage by weight of marker diffused to the dermis (remained in pig skin), Herbal Paste (Control) / percentage by weight of marker in the receiving cell, Herbal Paste (Control): donor: herbal paste of Example 1; for percentage by weight of marker diffused to the dermis (remained in pig skin), Herbal Paste (Control) / percentage by weight of marker in the receiving cell, Herbal Paste (Control) / percentage by weight of marker diffused to the dermis (remained in pig skin), Transdermal Patch (Test Sample) / percentage by weight of marker in the receiving cell, Transdermal Patch (Test Sample): 37° C., pig skin; for percentage by weight of marker diffused to the dermis (remained in pig skin), Transdermal Patch (Test Sample) / percentage by weight of marker in the receiving cell, Transdermal Patch (Test Sample): donor: transdermal patch of Example 4.2
Experimental: A vertical Franz diffusion cell (Hanson Research, USA) is used to carry out in vitro skin diffusion study. […] The receiving medium is formed by physiological saline solution of (0.9% NaCl). The donor compartment is filled with the test sample or control sample. […] After 24 hours, contents of the receiving cell and pig skin sample are collected, the solution from the receiving cell (i.e. receiving medium) and pig skin are detected for chemical markers found therein in order to analyze the transdermal diffusion rate of the test sample and control sample. The test is performed in triplicate. HPLC-ESI-MS is used to detect diffused markers and control sample. Agilent 1290 Infinity LC system (purchased from Agilent Technologies) having a vacuum device, a binary liquid pump, an autosampler, Agilent 6410 triple quadrupole (Triple Quad) LC/MS connected with a Agilent MassHunter computer software (Workstation) is used. Acquity UPLC HSS T3 1.8 μm (2.1 mm×150 mm) column is used and the Acquity UPLC is maintained a temperature of 40° C. […] The flow rate is controlled at 0.5 mL/min, and injection volume of 20 µL. MS analysis using Agilent 6410 triple quadrupole LC/MS configured with ESI MS is carried out under negative ion mode and multiple reaction monitoring modes. Target ions of HYA is m/z 611.2->325.0; Rg1 is m/z 799.5->637.4; […] is m/z 927.5->603.3; Rb1 is m/z 1107.6->119.0; Kae is m/z 285.0->117.0; Emo is m/z 269.0->241.0; Rhe is m/z 283.0->239.0 and OA is m/z 455.3->407.4.

Molecule	elevation of diffusion properties, transdermal patch relative to herbal paste control, receiving medium [times]	elevation of diffusion properties, transdermal patch relative to herbal paste control, pig skin [times]	percentage by weight of marker diffused to the dermis (remained in pig skin), Herbal Paste (Control) [wt %]	percentage by weight of marker in the receiving cell, Herbal Paste (Control) (receiving medium 0.9% NaCl) [wt %]	percentage by weight of marker diffused to the dermis (remained in pig skin), Transdermal Patch (Test Sample) [wt %]	percentage by weight of marker in the receiving cell, Transdermal Patch (Test Sample) (receiving medium 0.9% NaCl) [wt %]	detection in the receiving medium (in words) (receiving medium 0.9% NaCl)
CC1(C)CC[C@]2(C(=O)O[C@@H]3O[C@H](CO[C@@H]4O[C@H](CO)[C@@H](O)[C@H](O)[C@H]4O)[C@@H](O)[C@H](O)[C@H]3O)CC[C@]3(C)C(=CC[C@@H]4[C@@]5(C)CC[C@H](O[C@@H]6OC[C@H](O)[C@H](O)[C@H]6O)[C@@](C)(CO)[C@@H]5CC[C@]43C)[C@@H]2C1 [ASP6, Asperosaponin VI]	32	33	0.0859	0.1375	2.8010	4.4904	–
Cc1cc(O)c2c(c1)C(=O)c1cc(O)cc(O)c1C2=O [Emo, Emodin]	203	5	0.2773	0.0091	1.3656	1.8494	–
O=c1c(O)c(-c2ccc(O)cc2)oc2cc(O)cc(O)c12 [Kae, Kaempferol]	11	12	0.7532	6.5294	9.0852	72.3590	–
CC1(C)CC[C@]2(C(=O)O)CC[C@]3(C)C(=CC[C@@H]4[C@@]5(C)CC[C@H](O)C(C)(C)[C@@H]5CC[C@]43C)[C@@H]2C1 [OA, Oleanolic Acid]	–	47	0.1253	0.0000	5.8588	0.0000	cannot be detected
CC(C)=CCC[C@](C)(O[C@@H]1O[C@H](CO[C@@H]2O[C@H](CO)[C@@H](O)[C@H](O)[C@H]2O)[C@@H](O)[C@H](O)[C@H]1O)[C@H]1CC[C@]2(C)[C@@H]1[C@H](O)C[C@@H]1[C@@]3(C)CC[C@H](O[C@@H]4O[C@H](CO)[C@@H](O)[C@H](O)[C@H]4O[C@@H]4O[C@H](CO)[C@@H](O)[C@H](O)[C@H]4O)C(C)(C)[C@@H]3CC[C@]12C [Rb1, Ginsenoside Rb1]	472	17	–	0.0167	–	7.8820	–
CC(C)=CCC[C@](C)(O[C@@H]1O[C@H](CO)[C@@H](O)[C@H](O)[C@H]1O)[C@H]1CC[C@]2(C)[C@@H]1[C@H](O)C[C@@H]1[C@@]3(C)CC[C@H](O)C(C)(C)[C@@H]3[C@@H](O[C@@H]3O[C@H](CO)[C@@H](O)[C@H](O)[C@H]3O)C[C@]12C [Rg1, Ginsenoside Rg1]	14	21	–	1.1884	–	16.3635	–
O=C(O)c1cc(O)c2c(c1)C(=O)c1cccc(O)c1C2=O [Rhein]	21	11	0.1371	0.2299	1.4277	4.8924	–
Hydrosafflower yellow A [HYA]	8	41	0.0117	2.0879	0.4772	16.5104	–
